PMC9181938, “Fluorinated Analogues of Lepidilines A and C: Synthesis and Screening of Their Anticancer and Antiviral Activity” (Molecules, 2022)
Read-outs that look alike come from different tables or passages of the source.

What was measured:
[1] = Cytotoxicity MTT assay (0.1–1000 µM), CC50; format: cell-based, Human; details: human, A549 cells, read-out: CC50 Cancer Cell Lines A549
[2] = test system: Human adenovirus 5 (AdV5); experiment: Antiviral activity assay (0.1–1000 µM), IC50; format: cell-based; details: Human mastadenovirus C; AdV5, MOI 0.005; read-out: IC50 AdV5
Experimental: (§1) Antiviral properties of compounds 1e–1g, 1e[PF6], 8a–8d, and 9a were assessed against five viruses: Human herpesvirus 1 (HSV-1, VR-539), Human parainfluenza virus type 3 (HPIV-3, VR-93), Human adenovirus 5 (AdV5, VR-5), Human herpesvirus 5 (HCMV, VR-977), and Encephalomyocarditis virus (EMCV, VR-1479). Viruses were purchased from the American Type Culture Collection (ATCC, Manassas, VA, USA).
(§2) All tested compounds were dissolved in DMSO (dimethyl sulfoxide, Sigma-Aldrich, Darmstadt, Germany) and then suspended in Minimum Essential Medium (MEM; Sigma-Aldrich, Darmstadt, Germany) supplemented with 2% heat-inactivated fetal bovine serum (FBS; Sigma-Aldrich, Darmstadt, Germany), 2 mM L-glutamine (Sigma-Aldrich, Darmstadt, Germany), and 100 units/mL penicillin G with […] streptomycin (Sigma-Aldrich, Darmstadt, Germany).
(§3) Investigated cells were propagated in Minimum Essential Medium (MEM; Sigma-Aldrich, Darmstadt, Germany) supplemented with 10% heat-inactivated fetal bovine serum (FBS; Sigma-Aldrich, Darmstadt, Germany) and 100 units/mL penicillin G with […] streptomycin (Sigma-Aldrich, Darmstadt, Germany). After reaching 80–90% confluency, cells were harvested with trypsin (Life Technologies, Warsaw, Poland) and seeded into 96-well microplates at 2 × 10^5 cells/mL after overnight incubation of cells at 37 °C in a humidified atmosphere containing 5% CO2.
(§4) The culture medium was removed from confluent cells grown in 96-well microplates, and the cells were inoculated with virus solutions in MEM supplemented with 2% FBS and antibiotics (HSV-1 MOI 0.005, 1000 virions/mL; HPIV-3 MOI 0.01, 2000 virions/mL; AdV5 MOI 0.005, 1000 virions/mL; EMCV 0.005, 1000 virions/mL; HCMV 20 PFU/well (plaque-forming units per well). After a 1-h (HSV-1, HPIV-3, AdV5, and EMCV) or 2-h adsorption period (HCMV), residual viral particles were removed, and infected cells were further incubated with MEM supplemented with 2% FBS containing compound concentrations in the range from 0.1 to 1000 µM [38]. All experiments were carried out in triplicate. The cell monolayers were incubated with the investigated compounds at 37 °C in a humidified atmosphere containing 5% CO2 until a cytopathic effect (CPE) was visible. Viral infection was evaluated by the MTT assay (as described previously) or plaque reduction assay. HCMV plaques were counted under an inverted microscope, Olympus IX73 (Olympus, Tokyo, Japan). Antiviral activity was expressed as the concentration required to reduce the number of viral plaques to 50% of the control (virus-infected but untreated).

[3] = test system: Human parainfluenza virus type 3 (HPIV-3); experiment: Antiviral activity assay (0.1–1000 µM), IC50; format: cell-based; details: Human respirovirus 3, HPIV-3, MOI 0.01; read-out: IC50 HPIV-3
Experimental: as §1, §2, §3, §4

[4] = test system: Encephalomyocarditis virus (EMCV); experiment: Antiviral activity assay (0.1–1000 µM), IC50; format: cell-based; details: Cardiovirus A, MOI 0.005, read-out: IC50 EMCV
Experimental: as §1, §2, §3, §4

[5] = test system: Human herpesvirus 1 (HSV-1); experiment: Antiviral activity assay (0.1–1000 µM), IC50; format: cell-based; details: Human alphaherpesvirus 1; HSV-1, MOI 0.005
Experimental: as §1, §2, §3, §4

[6] = Cytotoxicity MTT assay (0.1–1000 µM), CC50; format: cell-based, Mus musculus; details: Mus musculus, NCTC clone 929 cells, NCTC clone 929, MTT, 48 h; read-out: CC50 Normal Cell Lines NCTC Clone 929
[7] = Cytotoxicity MTT assay (0.1–1000 µM), CC50; format: cell-based, Human; details: human, HepG2 cells, read-out: CC50 Cancer Cell Lines HepG2
[8] = test system: Human herpesvirus 5 (HCMV); experiment: Antiviral activity assay (0.1–1000 µM), IC50, plaque reduction; format: cell-based; details: Human betaherpesvirus 5, 20 PFU/well
Experimental: as §1, §2, §3, §4

[9] = Cytotoxicity MTT assay (0.1–1000 µM), CC50; format: cell-based, Macaca mulatta; details: Macaca mulatta, LLC-MK2 cells, LLC-MK2, MTT, 48 h; read-out: CC50 Normal Cell Lines LLC-MK2
LLC-MK2 cells = experiment: Cytotoxicity MTT assay (0.1–1000 µM), CC50; format: cell-based, Macaca mulatta; details: LLC-MK2, MTT, 48 h; read-out: CC50 Normal Cell Lines LLC-MK2
[10] = Cytotoxicity MTT assay (0.1–1000 µM), CC50; format: cell-based, Human; details: human, HeLa cells, MTT, 48 h, read-out: CC50 Cancer Cell Lines HeLa
[11] = test system: Human herpesvirus 5 (HCMV); experiment: Antiviral screening at 10 µM, plaque reduction; format: cell-based; details: Human betaherpesvirus 5, antiviral screening, HCMV-infected cells, read-out: Cell line (viability %) HCMV
Experimental: as §1, with “1a, 1c, 1a[PF6], 1c[PF6], 9b[PF6], 9c[PF6], 10a–10d, 2a,” for “1e–1g, 1e[PF6], 8a–8d,”, “2b” for “9a”
as §2
(§5) Vero, LLC-MK2, NCTC clone 929, MRC-5, and HeLa cells were propagated in Minimum Essential Medium (MEM; Sigma-Aldrich, Darmstadt, Germany) supplemented with 10% heat-inactivated fetal bovine serum (FBS; Sigma-Aldrich, Darmstadt, Germany) and 100 units/mL penicillin G with […] streptomycin (Sigma-Aldrich, Darmstadt, Germany). Upon reaching 80–90% confluency, cells were harvested with 0.25% trypsin in 1 mM EDTA (Life Technologies, Warsaw, Poland) and seeded onto 96-well microplates at 2 × 10^5 cells/mL. After overnight incubation of cells at 37 °C in a humidified atmosphere containing 5% CO2, the culture medium was removed, and cells were inoculated with the respective virus solution in MEM supplemented with 2% FBS and antibiotics (HSV-1 MOI 0.005, 1000 virions/mL; HPIV-3 MOI 0.01, 2000 virions/mL; AdV5 MOI 0.005, 1000 virions/mL, EMCV MOI 0.005, 1000 virions/mL, HCMV 20 PFU (plaque forming units) per well). After a 1-h (HSV-1, HPIV-3, AdV5, and EMCV) or 2-h adsorption period (HCMV), the residual virus was removed, and the infected cells were further incubated with a 100 μL freshly prepared solution of tested compounds diluted with a maintenance medium supplemented with 2% FBS to obtain compound concentrations of 10 µM. The final concentration of DMSO in the medium was 0.1%. All experiments were carried out in triplicate. The cells monolayers were incubated with the compounds at 37 °C in a humidified atmosphere containing 5% CO2 until the typical cytopathic effect (CPE) was visible. Viral infection was evaluated by the MTT assay or plaque reduction assay (HCMV). After incubation with drugs, the cells were treated with 3-(4,5-dimethylthiazol-2-yl)-2,5-diphenyltetrazolium bromide dye solution (MTT, Sigma-Aldrich, Darmstadt, Germany) (25 μL, 5 mg/mL) for 2 h and lysed with solvent solution (100 μL) containing: DMF (Sigma-Aldrich, Darmstadt, Germany) (45 mL), SDS (Sigma-Aldrich, Darmstadt, Germany) (13.5 g), and distilled water (55 mL). After overnight incubation at 37 °C, the optical density at 550 nm and a reference wavelength of 670 nm were measured on a microplate spectrophotometer, Varioskan Lux (Thermo Fisher Scientific, Waltham, MA, USA). The number of HCMV plaques was counted under an inverted microscope Olympus IX73 (Olympus, Tokyo, Japan).

[12] = Cytotoxicity screening at 10 µM (MTT); format: cell-based, Cercopithecus aethiops; details: Cercopithecus aethiops, Vero cells, read-out: Cell line (viability %) Vero
[13] = test system: Human adenovirus 5 (AdV5); experiment: Antiviral screening at 10 µM; format: cell-based; details: Human mastadenovirus C, AdV5-infected cells, read-out: Cell line (viability %) AdV5
Experimental: as §1, with “1a, 1c, 1a[PF6], 1c[PF6], 9b[PF6], 9c[PF6], 10a–10d, 2a,” for “1e–1g, 1e[PF6], 8a–8d,”, “2b” for “9a”
as §2, §5

[14] = test system: Human parainfluenza virus type 3 (HPIV-3); experiment: Antiviral screening at 10 µM; format: cell-based; details: Human respirovirus 3, antiviral screening, HPIV-3-infected cells, read-out: Cell line (viability %) HPIV-3
Experimental: as §1, with “1a, 1c, 1a[PF6], 1c[PF6], 9b[PF6], 9c[PF6], 10a–10d, 2a,” for “1e–1g, 1e[PF6], 8a–8d,”, “2b” for “9a”
as §2, §5

[15] = test system: Encephalomyocarditis virus (EMCV); experiment: Antiviral screening at 10 µM; format: cell-based; details: Cardiovirus A, EMCV-infected cells, read-out: Cell line (viability %) EMCV
Experimental: as §1, with “1a, 1c, 1a[PF6], 1c[PF6], 9b[PF6], 9c[PF6], 10a–10d, 2a,” for “1e–1g, 1e[PF6], 8a–8d,”, “2b” for “9a”
as §2, §5

[16] = test system: Human herpesvirus 1 (HSV-1); experiment: Antiviral screening at 10 µM; format: cell-based; details: Human alphaherpesvirus 1, antiviral screening, HSV-1-infected cells, read-out: Cell line (viability %) HSV-1
Experimental: as §1, with “1a, 1c, 1a[PF6], 1c[PF6], 9b[PF6], 9c[PF6], 10a–10d, 2a,” for “1e–1g, 1e[PF6], 8a–8d,”, “2b” for “9a”
as §2, §5

[17] = Cytotoxicity screening at 10 µM (MTT); format: cell-based, Mus musculus; details: Mus musculus, NCTC clone 929 cells, read-out: Cell line (viability %) NCTC clone 929
[18] = Cytotoxicity screening at 10 µM (MTT); format: cell-based, Macaca mulatta; details: Macaca mulatta, LLC-MK2 cells, read-out: Cell line (viability %) LLC-MK2
[19] = Cytotoxicity screening at 10 µM (MTT); format: cell-based, Human; details: human, MRC-5 cells, read-out: Cell line (viability %) MRC-5
[20] = Cytotoxicity screening at 10 µM (MTT); format: cell-based, Human; details: human, HeLa cells, read-out: Cell line (viability %) HeLa

Q: Which results are given for `FC(F)(F)c1cccc(C[n+]2cn(Cc3ccccc3)c(-c3ccccc3)c2-c2ccccc2)c1.[Br-]` [Compound 9a, 1-Benzyl-4,5-diphenyl-3-[3-(trifluoromethyl)benzyl]imidazolium bromide]?
A: CC50 at 48 h [1]: 35 ± 5 nM; melting point: 216 to 217 °C; IC50 [2]: > 19 nM; IC50 [3]: > 40 nM; IC50 [4]: > 3.75 µM; IC50 [5]: > 347 nM; CC50 at 48 h [6]: 3.75 ± 0.087 µM; CC50 at 48 h [7]: 6.9 ± 0.361 µM; IC50 [8]: > 90 nM; CC50 at 48 h [9]: 40 to 347 nM; CC50 (LLC-MK2 cells): 40 ± 2 nM; CC50 at 48 h [10]: 19 ± 1 nM

Q: With `c1ccc(Cn2c[n+](Cc3ccccc3)c(-c3ccccc3)c2-c2ccccc2)cc1` [9b[PF6]] as the compound, how does the viability at 10 µM [11] read?
A: 6.3%

Q: And the viability at 48 h, 10 µM [12]?
A: 6.7%

Q: What about the viability at 10 µM [13] of the same compound?
A: 13.9%

Q: And the viability at 10 µM [14]?
A: 12%

Q: And the viability at 10 µM [15]?
A: 9.3%

Q: What about the viability at 10 µM [16] of the same compound?
A: 11.7%

Q: And the viability at 48 h, 10 µM [17]?
A: 4.1%

Q: And the viability at 48 h, 10 µM [18]?
A: 8%

Q: What about the viability at 48 h, 10 µM [19] of the same compound?
A: 12.8%

Q: And the viability at 48 h, 10 µM [20]?
A: 6.8%

Q: With `S=c1n(Cc2ccccc2)c(-c2ccccc2)c(-c2ccccc2)n1Cc1ccccc1` [Compound 10c] as the compound, how does the viability at 10 µM [11] read?
A: 7.1%

Q: What about the viability at 48 h, 10 µM [12] of the same compound?
A: 11.4%

Q: And the viability at 10 µM [13]?
A: 16%

Q: What about the viability at 10 µM [14] of the same compound?
A: 10.9%

Q: What about the viability at 10 µM [15] of the same compound?
A: 8.5%

Q: And the viability at 10 µM [16]?
A: 14.7%

Q: And the viability at 48 h, 10 µM [17]?
A: 35.5%

Q: What about the viability at 48 h, 10 µM [18] of the same compound?
A: 15.8%

Q: And the viability at 48 h, 10 µM [19]?
A: 73.8%

Q: And the viability at 48 h, 10 µM [20]?
A: 7.8%

Q: For `COc1cccc(Cn2c[n+](Cc3ccccc3)c(-c3ccccc3)c2-c2ccccc2)c1` [9c[PF6]], which viability at 10 µM [11] is on record?
A: 1.9%

Q: What about the viability at 48 h, 10 µM [12] of the same compound?
A: 6.6%

Q: What about the viability at 10 µM [13] of the same compound?
A: 14.4%

Q: And the viability at 10 µM [14]?
A: 12.8%

Q: And the viability at 10 µM [15]?
A: 9.4%

Q: What about the viability at 10 µM [16] of the same compound?
A: 13.3%

Q: And the viability at 48 h, 10 µM [17]?
A: 6.5%

Q: And the viability at 48 h, 10 µM [18]?
A: 7.6%

Q: And the viability at 48 h, 10 µM [19]?
A: 12.6%

Q: What about the viability at 48 h, 10 µM [20] of the same compound?
A: 7.1%
